Laboratory results published in PubChem BioAssay (NCI).
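How tested: cells in 96-well plates exposed to compound for 48 hours at five concentrations. GI50 = concentration required for 50% inhibition of growth. At the TGI there is no net growth.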

Legend:
Assay in all cases: growth of human tumour cells (NCI), 48 h
TK-10 renal = test system: TK-10 renal
SR leukemia = test system: SR leukemia
ACHN renal = test system: ACHN renal
UACC-257 melanoma = test system: UACC-257 melanoma
HS 578T breast = test system: HS 578T breast
EKVX NSCLC = test system: EKVX NSCLC
IGROV1 ovarian = test system: IGROV1 ovarian
RPMI-8226 leukemia = test system: RPMI-8226 leukemia
NCI-H23 lung = test system: NCI-H23 lung
CCRF-CEM leukemia = test system: CCRF-CEM leukemia
OVCAR-4 ovarian = test system: OVCAR-4 ovarian
SK-MEL-2 melanoma = test system: SK-MEL-2 melanoma
NCI-H460 lung = test system: NCI-H460 lung
HCT-15 colon = test system: HCT-15 colon
NCI-H522 lung = test system: NCI-H522 lung
SK-MEL-28 melanoma = test system: SK-MEL-28 melanoma
HCC-2998 colon = test system: HCC-2998 colon
HT29 colon = test system: HT29 colon
MCF7 breast = test system: MCF7 breast
U251 CNS = test system: U251 CNS
T-47D breast = test system: T-47D breast
786-0 renal = test system: 786-0 renal
NCI-H226 lung = test system: NCI-H226 lung
SF-539 CNS = test system: SF-539 CNS
K-562 leukemia = test system: K-562 leukemia
SN12C renal = test system: SN12C renal
NCI/ADR-RES ovarian = test system: NCI/ADR-RES ovarian
LOX IMVI melanoma = test system: LOX IMVI melanoma
RXF 393 renal = test system: RXF 393 renal

With `C=CC(=O)N[C@H]1CCOC[C@H]1Nc1ncc2cc(-c3c(Cl)c(OC)cc(OC)c3Cl)ccc2n1` the GI50 (TK-10 renal) was 31.8 µM, the TGI (TK-10 renal) was > 100 µM and the GI50 (SR leukemia) was 10.6 µM. The TGI (SR leukemia) was > 100 µM, the GI50 (ACHN renal) was 15.8 µM and the TGI (ACHN renal) was > 100 µM. For the same compound, the GI50 (UACC-257 melanoma) was 32.3 µM, the TGI (UACC-257 melanoma) was > 100 µM and the GI50 (HS 578T breast) was 17.8 µM. The TGI (HS 578T breast) was > 100 µM, the GI50 (EKVX NSCLC) was 4.31 µM and the TGI (EKVX NSCLC) was 94.3 µM. For the same compound, the GI50 (IGROV1 ovarian) was 23.7 µM, the TGI (IGROV1 ovarian) was > 100 µM and the GI50 (RPMI-8226 leukemia) was 9.04 µM. The TGI (RPMI-8226 leukemia) was 61.5 µM, the GI50 (NCI-H23 lung) was 22 µM and the TGI (NCI-H23 lung) was > 100 µM. The GI50 (CCRF-CEM leukemia) was 21.9 µM, the TGI (CCRF-CEM leukemia) was > 100 µM and the GI50 (OVCAR-4 ovarian) was 6.05 µM. For the same compound, the TGI (OVCAR-4 ovarian) was > 100 µM, the GI50 (SK-MEL-2 melanoma) was 11.9 µM and the TGI (SK-MEL-2 melanoma) was 31.7 µM. For the same compound, the GI50 (NCI-H460 lung) was 13.8 µM, the TGI (NCI-H460 lung) was > 100 µM and the GI50 (HCT-15 colon) was 7.89 µM. For the same compound, the TGI (HCT-15 colon) was 84.4 µM, the GI50 (NCI-H522 lung) was 30.9 µM and the TGI (NCI-H522 lung) was > 100 µM. It also gave a GI50 (SK-MEL-28 melanoma) of 18.3 µM, a TGI (SK-MEL-28 melanoma) of 80.2 µM and a GI50 (HCC-2998 colon) of 32.7 µM. For the same compound, the TGI (HCC-2998 colon) was > 100 µM, the GI50 (HT29 colon) was 13.2 µM and the TGI (HT29 colon) was > 100 µM. For the same compound, the GI50 (MCF7 breast) was 5.65 µM, the TGI (MCF7 breast) was 51 µM and the GI50 (U251 CNS) was 26.5 µM. For the same compound, the TGI (U251 CNS) was > 100 µM, the GI50 (T-47D breast) was 7.51 µM and the TGI (T-47D breast) was 85.5 µM. For the same compound, the GI50 (786-0 renal) was 17.5 µM, the TGI (786-0 renal) was > 100 µM and the GI50 (NCI-H226 lung) was 10.7 µM. The TGI (NCI-H226 lung) was 87.2 µM, the GI50 (SF-539 CNS) was 12.5 µM and the TGI (SF-539 CNS) was 29.9 µM. For the same compound, the GI50 (K-562 leukemia) was 13.9 µM, the TGI (K-562 leukemia) was > 100 µM and the GI50 (SN12C renal) was 16.2 µM. For the same compound, the TGI (SN12C renal) was > 100 µM, the GI50 (NCI/ADR-RES ovarian) was 20.7 µM and the TGI (NCI/ADR-RES ovarian) was > 100 µM. For the same compound, the GI50 (LOX IMVI melanoma) was 14.9 µM, the TGI (LOX IMVI melanoma) was 48.9 µM and the GI50 (RXF 393 renal) was 5.35 µM. It also gave a TGI (RXF 393 renal) of 36.7 µM.
